Measured values reported in article PMC5399052, “Integrating in vitro data and physiologically based kinetic (PBK) modelling to assess the in vivo potential developmental toxicity of a series of phenols” (Archives of Toxicology, 2016).
Like-named read-outs stand apart in the source and are kept apart here. Marks after values point to notes of the source that are not given here.

Key:
[1] = system: Caco-2 cells; test: in vitro
Protocol: (§1) Caco-2 cells (passages 37–40) were cultured in DMEM containing 25 mM HEPES (pH 7.4) supplemented with 10% (v/v) heat-inactivated FCS, 4500 mg/l glucose, 2 mM L-glutamine, 1% (v/v) minimal essential medium non-essential amino acids, 10,000 U/ml penicillin and 10 mg/ml streptomycin and maintained in polystyrene cell culture flasks (Corning, Amsterdam, the Netherlands) in a 5% CO2-humidified atmosphere at 37 °C. Cells were harvested after exposure to a trypsin–EDTA solution. Next, the cells were seeded onto Transwell® inserts (0.4 µm pored polycarbonate membrane, 12 mm diameter), at a density of 10^5 cells/cm^2. Cell culture medium (0.5 and 1.5 ml in the apical and basolateral compartment, respectively) was changed every two days.
(§2) Transport experiments were performed between day 20 and 23 post-seeding. Prior to the transport experiments, the cell culture medium was removed and cells were equilibrated in HBSS for 30–45 min in a 5% CO2-humidified atmosphere at 37 °C. In these 45 min, the integrity of the cell monolayer was examined by measuring the Trans Epithelial Electrical Resistance (TEER) of the cell layer using a Millicell ERS-2 Volt–Ohm Meter (Millipore, USA). Only cell layers with a TEER value between 500 and 1000 Ω cm^2 were used for the transport experiments. The transport buffer for the apical compartment consisted of HBSS containing 10 mM HEPES (pH 6.5) and 10 mM sodium taurocholate and the transport buffer for the basolateral compartment consisted of HBSS (pH 7.4) with 30 mg/ml bovine serum albumin. At first, 1.5 ml pre-warmed (37 °C) transport buffer was added to the basolateral compartment. Then, the transport experiments were started by adding 0.5 ml pre-warmed transport buffer containing the test compound (100 µM) to the apical compartment. After 60-min incubation in a 5% CO2-humidified atmosphere at 37 °C, a 75 µl sample was taken from the basolateral compartment and then from the apical compartment. Each sample was added to 150 µl ice-cold methanol, vortexed and put on ice immediately. […] Samples were analysed by UPLC–PDA (see “Quantification of analytes” section) for the presence of the test compound and possible metabolites.
(§3) TEER values were also measured at the end of the transport experiment, during the first washing step and compared to the TEER values measured before the transport experiment in order to assess toxicity of the test compound to the cell monolayer. […]
(§4) The apparent permeability coefficients (P app; cm/s) were calculated using the following algorithm: Papp=ΔQ/Δt/A∗C0 where P app is the apparent permeability coefficient (cm/s), ΔQ/Δt (nmol/s) is the amount of the test compound transported to the receiver chamber in a certain time period, A is the transwell membrane surface area (cm^2) and C 0 is the initial concentration of the test compound in the donor compartment (µM).
(§5) In order to assess the validity of the P app calculations for this experiment, the linearity of transport from the apical to the basolateral side was verified by taking samples from the basolateral side at t = 15, 30, 60 and 90 min, at a test concentration of 100 µM. […] The recovery of the test compound in each transport experiment was calculated with a mass balance equation, taking into account the amount of the test compound in the apical and basolateral compartment and the amount in the cells and/or filter of the Transwell® insert.

[2] = rat, ref Humphrey et al. [1980], cited from earlier work
[3] = In vitro placental transport study (BeWo b30 transwell); conditions: human
Protocol: BeWo cells (passages 28–31) were cultured in DMEM with […] and supplemented with 10% (v/v) heat-inactivated FCS, 2 mM L-glutamine, 10,000 U/ml penicillin and 10 mg/ml streptomycin and maintained in polystyrene cell culture flasks (Corning, Amsterdam, the Netherlands) in a 5% CO2-humidified atmosphere at 37 °C. Cells were harvested after exposure to a trypsin–EDTA solution. Next, the cells were seeded onto Transwell® inserts (0.4-µm pored polycarbonate membrane, 12 mm diameter), with a density of 10^5 cells/cm^2. Cell culture medium (0.5 and 1.5 ml in the apical and basolateral compartment, respectively) was changed daily.
Transport experiments were performed 6 days post-seeding. The transport buffer consisted of HBSS with 30 mg/ml bovine serum albumin (apical compartment) and 10 mg/ml bovine serum albumin (basolateral compartment) representing mid- and late gestational maternal and embryonic/foetal rat plasma albumin levels, respectively (Honda et al. [2008]; Mcmullin et al. [2008]; Yeoh and Morgan [1974]). The transport experiments were performed for the same compounds and according to the same method as described for the Caco-2 transport experiments, except that only cell layers with a TEER value >190 Ω cm^2 were used for the transport experiments. The BeWo transport studies encompassed four independently performed experiments including two replicates in each assay. Samples were analysed by UPLC–PDA (see “Quantification of analytes” section) for the presence of the test compound and possible metabolites. The apparent permeability coefficients were calculated using the same method as described for the Caco-2 transport experiments.

[4] = system: Balb/c 3T3 clone A31; conditions: BSA levels reflecting in vitro and in vivo situation
Protocol: In vitro concentration–response data obtained with the EST were translated to in vivo dose–response values by applying PBK-based reverse modelling, performed as described by Strikwold et al. ([2013]) with some modifications. […] In vivo albumin and fat levels that are used in the extrapolation rules were adjusted to values that correspond to embryos/foetuses during mid-/late gestation. […] The vitro lipid fraction and albumin levels resembling the situation in the EST were 0.04% and 4.8 mg/ml, respectively (Verwei et al. [2006]).

[5] = in vitro; conditions: human, Caco-2
Protocol: as §1, §2, §3, §4, §5

SMILES	ka, predicted oral absorption coefficient ([1]; Caco-2)	ka, uptake rate from in situ intestinal perfusion [2]	ka, uptake rate from in situ intestinal perfusion ([2]; listed as phenol)	Papp A→B at 60 min, 100 µM [3]	Effect of bovine serum albumin level on in vitro cytotoxicity [4]	Papp A→B at 60 min, 100 µM [5]	ka, predicted oral absorption coefficient ([1]; rat, Caco-2, 100 µM)
CC(=O)c1ccc(O)cc1 [p-Methylketophenol, p-methylketophenol]	8.18 h⁻¹	–	–	–	–	–	–
Oc1ccccc1 [Phenol]	–	7.62^b /h	7.62 h⁻¹	41.6 ± 3.4 ×10⁻⁶ cm/s	not affected	48.4 ± 8.6 ×10⁻⁶ cm/s	–
Oc1ccc(F)cc1 [p-Fluorophenol, p-fluorophenol]	–	–	–	34.2 ± 3.3 ×10⁻⁶ cm/s	–	47.7 ± 13.8 ×10⁻⁶ cm/s	7.52 h⁻¹
